Assay results taken from patent US9951065B2 (Gilead Sciences, Inc., priority 2015, dated 2018).

What follows are compounds tested against T1, IDO1 (Homo sapiens, UniProt P14902) (assay: Cell-based (HeLa) assay for measurement of IDO1 inhibition (kynurenine levels in supernatant after IFNγ induction)). Settings: HeLa cells, IFNγ-induced IDO1, kynurenine in supernatant after 48 hour incubation; geometric mean of a minimum of four determinations.
T1 construct: HeLa cells were treated with a test compound in the presence of IFNγ, which induces IDO1 expression; host or cells: H1-HeLa cells, IDO1 induced with IFNγ
Outline: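 HeLa cells, 1,250 per well, treated with compound (0.5% DMSO final) plus IFNγ to induce IDO1, for 48 h. Supernatant kynurenine measured by TCA hydrolysis at 60 °C, then p-dimethylaminobenzaldehyde, absorbance 480 nm. EC50 from a four-parameter fit normalized to −/+IFNγ controls; geometric mean of at least four runs.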

T1 sequence (P14902 whole entry): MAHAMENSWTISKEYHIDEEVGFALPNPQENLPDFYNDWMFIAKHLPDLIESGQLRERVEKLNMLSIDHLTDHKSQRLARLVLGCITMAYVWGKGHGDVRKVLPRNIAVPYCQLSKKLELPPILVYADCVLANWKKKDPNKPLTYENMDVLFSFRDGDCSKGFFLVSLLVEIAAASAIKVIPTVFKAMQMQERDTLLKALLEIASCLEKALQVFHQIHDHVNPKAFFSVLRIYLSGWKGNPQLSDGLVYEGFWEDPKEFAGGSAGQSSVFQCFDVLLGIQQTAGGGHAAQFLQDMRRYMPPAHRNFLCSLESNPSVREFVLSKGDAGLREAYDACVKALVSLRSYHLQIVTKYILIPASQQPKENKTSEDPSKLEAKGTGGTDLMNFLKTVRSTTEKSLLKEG

SMILES	EC50
CN(C)Cc1nc2c(F)c(F)cc(/C(=N/O)Nc3cccc(Cl)c3)c2[nH]1 [Example 26, N-(3-Chlorophenyl)-2-((dimethylamino)methyl)-4,5-difluoro-N′-hydroxy-1H-benzo[d]imidazole-7-carboximidamide]	1.21 µM
O/N=C(\Nc1ccc(F)c(-c2ccccc2)c1)c1ccnc2nc[nH]c12 [Example 77, N-(6-Fluoro-[1,1′-biphenyl]-3-yl)-N′-hydroxy-1H-imidazo[4,5-b]pyridine-7-carboximidamide]	2.29 µM
CN(C)CCc1nc2c(/C(=N/O)Nc3cccc(Br)c3)cc(F)c(F)c2[nH]1 [Example 55, N-(3-Bromophenyl)-2-(2-(dimethylamino)ethyl)-6,7-difluoro-N′-hydroxy-1H-benzo[d]imidazole-4-carboximidamide]	0.379 µM
O/N=C(\Nc1cccc(Br)c1)c1ccnc2nc(CCN3CCCC3)[nH]c12 [Example 269, N-(3-bromophenyl)-N′-hydroxy-2-(2-(pyrrolidin-1-yl)ethyl)-1H-imidazo[4,5-b]pyridine-7-carboximidamide]	0.979 µM
OCc1nc2c(/C(=N/O)Nc3ccc(F)c(Cl)c3)cc(F)c(F)c2[nH]1 [Example 46, N-(3-Chloro-4-fluorophenyl)-4,5-difluoro-N′-hydroxy-2-(hydroxymethyl)-1H-benzo[d]imidazole-7-carboximidamide]	0.835 µM
O=c1onc(-c2ccnc3nc(CO)[nH]c23)n1-c1ccc(F)c(Cl)c1 [Example 111, 4-(3-Chloro-4-fluorophenyl)-3-(2-(hydroxymethyl)-1H-imidazo[4,5-b]pyridin-7-yl)-1,2,4-oxadiazol-5(4H)-one]	4.45 µM
CN1CCCC(c2nc3c(F)c(F)cc(/C(=N/O)Nc4cccc(Cl)c4)c3[nH]2)C1 (centres unmarked) [Example 44, N-(3-Chlorophenyl)-4,5-difluoro-N′-hydroxy-2-(1-methylpiperidin-3-yl)-1H-benzo[d]imidazole-7-carboximidamide]	1.65 µM
C#Cc1cccc(N/C(=N\O)c2ccnc3nc[nH]c23)c1 [Example 95, N-(3-ethynylphenyl)-N′-hydroxy-1H-imidazo[4,5-b]pyridine-7-carboximidamide]	0.302 µM
O/N=C(\Nc1cc(Br)c(F)cc1F)c1ccnc2nc[nH]c12 [Example 61, N-(5-Bromo-2,4-difluorophenyl)-N′-hydroxy-1H-imidazo[4,5-b]pyridine-7-carboximidamide]	0.371 µM
O/N=C(\Nc1cc(F)cc(Br)c1)c1ccnc2nc[nH]c12 [Example 72, N-(3-Bromo-5-fluorophenyl)-N′-hydroxy-1H-imidazo[4,5-b]pyridine-7-carboximidamide]	0.28 µM

Other lines, results leading:

EC50	SMILES
0.559 µM	CN(C)CCc1nc2nccc(/C(=N/O)Nc3ccc(F)c(Br)c3)c2[nH]1 [Example 263, N-(3-bromo-4-fluorophenyl)-2-(2-(dimethylamino)ethyl)-N′-hydroxy-1H-imidazo[4,5-b]pyridine-7-carboximidamide]
0.136 µM	CN(C)CCNc1nc2c(F)c(F)cc(/C(=N/O)Nc3ccc(F)c(Cl)c3)c2[nH]1 [Example 43, N-(3-Chloro-4-fluorophenyl)-2-((2-(dimethylamino)ethyl)amino)-4,5-difluoro-N′-hydroxy-1H-benzo[d]imidazole-7-carboximidamide]
1.16 µM	CN(C)CC(O)c1nc2nccc(/C(=N/O)Nc3ccc(F)c(Cl)c3)c2[nH]1 (centres unmarked) [Example 195, N-(3-Chloro-4-fluorophenyl)-2-(2-(dimethylamino)-1-hydroxyethyl)-N′-hydroxy-1H-imidazo[4,5-b]pyridine-7-carboximidamide]
1.21 µM	CN(CCNc1nc2nccc(/C(=N/O)Nc3ccc(F)c(Cl)c3)c2[nH]1)C1CCOCC1 [Example 239, N-(3-chloro-4-fluorophenyl)-N′-hydroxy-2-((2-(methyl(tetrahydro-2H-pyran-4-yl)amino)ethyl)amino)-1H-imidazo[4,5-b]pyridine-7-carboximidamide]
0.358 µM	O/N=C(\Nc1ccc(F)c(Cl)c1)c1ccnc2nc(CCN3CCCC3)[nH]c12 [Example 193, N-(3-Chloro-4-fluorophenyl)-N′-hydroxy-2-(2-(pyrrolidin-1-yl)ethyl)-1H-imidazo[4,5-b]pyridine-7-carboximidamide]
> 10 µM	NS(=O)(=O)NCCc1nc2nccc(/C(=N/O)Nc3ccc(F)c(Cl)c3)c2[nH]1 [Example 267, N-(3-chloro-4-fluorophenyl)-N′-hydroxy-2-(2-(sulfamoylamino)ethyl)-1H-imidazo[4,5-b]pyridine-7-carboximidamide]
1.83 µM	CS(=O)(=O)CCNc1nc2c(F)ccc(/C(=N/O)Nc3ccc(F)c(Cl)c3)c2[nH]1 [Example 33, N-(3-Chloro-4-fluorophenyl)-4-fluoro-N′-hydroxy-2-((2-(methylsulfonyl)ethyl)amino)-1H-benzo[d]imidazole-7-carboximidamide]
3.21 µM	O/N=C(\Nc1ccc(F)c(Cl)c1)c1ccnc2nc(CCN3CC[C@@H](O)C3)[nH]c12 [Example 260, (R)—N-(3-chloro-4-fluorophenyl)-N′-hydroxy-2-(2-(3-hydroxypyrrolidin-1-yl)ethyl)-1H-imidazo[4,5-b]pyridine-7-carboximidamide]
3.45 µM	O/N=C(\Nc1ccc(F)c(Cl)c1)c1ccnc2nc(CCN3CC[C@H](O)C3)[nH]c12 [Example 261, (S)—N-(3-chloro-4-fluorophenyl)-N′-hydroxy-2-(2-(3-hydroxypyrrolidin-1-yl)ethyl)-1H-imidazo[4,5-b]pyridine-7-carboximidamide]
6.27 µM	CN(C)CCNCc1nc2nccc(/C(=N/O)Nc3ccc(F)c(Cl)c3)c2[nH]1 [Example 136, N-(3-Chloro-4-fluorophenyl)-2-(((2-(dimethylamino)ethyl)amino)methyl)-N′-hydroxy-1H-imidazo[4,5-b]pyridine-7-carboximidamide]

Same assay, conditions: HeLa cells, IFNγ-induced IDO1, kynurenine in supernatant, 48 hour incubation; geometric mean of a minimum of four determinations

SMILES	EC50
O/N=C(\Nc1ccc(F)c(Cl)c1)c1cc(F)c(F)c2nc(N[C@@H]3CCCCNC3)[nH]c12 [Example 463, (R)-2-(azepan-3-ylamino)-N-(3-chloro-4-fluorophenyl)-4,5-difluoro-N′-hydroxy-1H-benzo[d]imidazole-7-carboximidamide]	1.02 µM
NS(=O)(=O)NCCNc1nc2c(F)c(F)cc(/C(=N/O)Nc3ccc(F)c(Cl)c3)c2[nH]1 [Example 338, N-(3-chloro-4-fluorophenyl)-4,5-difluoro-N′-hydroxy-2-((2-(sulfamoylamino)ethyl)amino)-1H-benzo[d]imidazole-7-carboximidamide]	> 10 µM
Nc1nc2cc(F)cc(/C(=N/O)Nc3cccc(Br)c3)c2[nH]1 [Example 372, 2-amino-N-(3-bromophenyl)-5-fluoro-N′-hydroxy-1H-benzo[d]imidazole-7-carboximidamide]	0.483 µM

Continued, values first:

EC50	SMILES
2.65 µM	CN1CCOC[C@H]1CNc1nc2nccc(/C(=N/O)Nc3ccc(F)c(Cl)c3)c2[nH]1 [Example 482, (R)-N-(3-chloro-4-fluorophenyl)-N′-hydroxy-2-(((4-methylmorpholin-3-yl)methyl)amino)-1H-imidazo[4,5-b]pyridine-7-carboximidamide]
1.23 µM	CN(CCc1nc2nccc(/C(=N/O)Nc3ccc(F)c(Cl)c3)c2[nH]1)CC(C)(C)C [Example 392, N-(3-chloro-4-fluorophenyl)-N′-hydroxy-2-(2-(methyl(neopentyl)amino)ethyl)-1H-imidazo[4,5-b]pyridine-7-carboximidamide]
1.43 µM	O/N=C(\Nc1ccc(F)c(Cl)c1)c1cc(F)c(F)c2nc(N[C@H]3CCCCNC3)[nH]c12 [Example 462, (S)-2-(azepan-3-ylamino)-N-(3-chloro-4-fluorophenyl)-4,5-difluoro-N′-hydroxy-1H-benzo[d]imidazole-7-carboximidamide]
0.76 µM	O/N=C(\Nc1ccc(F)c(Cl)c1)c1ccnc2nc(NCCN3CCC[C@H]3C(F)(F)F)[nH]c12 [Example 481, (S)-N-(3-chloro-4-fluorophenyl)-N′-hydroxy-2-((2-(2-(trifluoromethyl)pyrrolidin-1-yl)ethyl)amino)-1H-imidazo[4,5-b]pyridine-7-carboximidamide]
0.289 µM	OCC1CCCCN1CCNc1nc2c(F)c(F)cc(/C(=N/O)Nc3ccc(F)c(Cl)c3)c2[nH]1 (centres unmarked) [Example 489, N-(3-chloro-4-fluorophenyl)-4,5-difluoro-N′-hydroxy-2-((2-(2-(hydroxymethyl)piperidin-1-yl)ethyl)amino)-1H-benzo[d]imidazole-7-carboximidamide]
0.681 µM	O/N=C(\Nc1cccc(Br)c1)c1ccnc2nc(NCCN3CCOCC3)[nH]c12 [Example 306, N-(3-bromophenyl)-N′-hydroxy-2-((2-morpholinoethyl)amino)-1H-imidazo[4,5-b]pyridine-7-carboximidamide]
3.24 µM	CN1CCOC(CNc2nc3nccc(/C(=N/O)Nc4ccc(F)c(Cl)c4)c3[nH]2)C1 (centres unmarked) [Example 357, N-(3-chloro-4-fluorophenyl)-N′-hydroxy-2-(((4-methylmorpholin-2-yl)methyl)amino)-1H-imidazo[4,5-b]pyridine-7-carboximidamide]
3.24 µM	CC(Cc1nc2nccc(/C(=N/O)Nc3ccc(F)c(Cl)c3)c2[nH]1)N(C)C (centres unmarked) [Example 328, N-(3-chloro-4-fluorophenyl)-2-(2-(dimethylamino)propyl)-N′-hydroxy-1H-imidazo[4,5-b]pyridine-7-carboximidamide]
0.205 µM	CN1CCCCC(Nc2nc3c(F)c(F)cc(/C(=N/O)Nc4ccc(F)c(Cl)c4)c3[nH]2)C1 (centres unmarked) [Example 451, N-(3-chloro-4-fluorophenyl)-4,5-difluoro-N′-hydroxy-2-((1-methylazepan-3-yl)amino)-1H-benzo[d]imidazole-7-carboximidamide]
